Assay results published in US6492335B1, “Glycoconjugates from modified camptothecin derivatives (20-O-linkage)” (Bayer Aktiengesellschaft, priority 1996, dated 2002).
“And” between values parts separate entries of the source, which are not always exact repeats. Equal values may be shown once. Where a name gives a salt, the structure may show the parent alone. Read-outs that look alike come from different tables or passages of the source.

How the values were obtained:
HT 29 = assay: Growth inhibition test (MTT) for cytotoxic properties; assay type: cell-based, human
Experimental: (§1) The human large intestine cell lines SW 480 and HT 29 (ATCC No. CCL 228 and HBT 38) and the mouse melanoma cell line B16F10 were grown in Roux dishes in RPMI 1640 medium with addition of 10% FCS. They were then trypsinized and taken up in RPMI plus 10% FCS to a cell count of 50,000 cells/ml. 100 μl of cell suspension/well were added to a 96 microwell plate and incubated for 1 day at 37° C. in a CO2 incubator. A further 100 μl of RPMI Medium and 1 μl of DMSO containing the test substances were then added. The growth was checked after day 3 and day 6. To this end, 40 μl of MTT solution (3-(4,5-dimethylthiazol-2-yl)-2,5-diphenyltetrazoline bromide) having a starting concentration of 5 mg/ml of H2O were added to each microwell. Incubation was carried out for 5 hours in a CO2 incubator at 37° C. The medium was then aspirated and 100 μl of i-propanol/well were added. After shaking for 30 min with 100 μl of H2O, the extinction was measured at 540 nm using a Titertek Multiscan MCC/340 (Flow).
(§2) The cytotoxic action is indicated in Table 1 as the IC50 value in each case for the SW 480 and HT 29 and B16F10 cell lines: […]

SW 480 = assay: as above; assay type: cell-based, human
Experimental: as §1, §2

B16F10 = assay: as above; assay type: cell-based, mouse
Experimental: as §1, §2

[1] = test system: mouse bone marrow stem cells; assay: Inhibition of the CSF-induced proliferation of mouse bone marrow stem cells (colony formation); conditions: recombinant murine GM-CSF, 7 days
Experimental: Bone marrow cells were washed out of mice femurs. 10^5 cells were incubated at 37° C. and 7% CO2 in McCoy 5A medium (0.3% agar) together with recombinant murine GM-CSF (Genzyme; stem cell colony formation) and the substances (10^−4 to 100 μg/ml). 7 days later, the colonies (<50 cells) and clusters (17-50 cells) were counted.

[2] = In vivo inhibition of tumour growth in the nude mouse model; conditions: NMRI nu/nu, mouse, in vivo, ip; nude mice, i.p. on day 1, 2 and 3; read-out: Maximum tolerable dose (MTD)
Experimental: (§3) For all in vivo experiments for investigation of the inhibition of tumour growth athymic nude mice (NMRI nu/nu strain) were used. The selected large-cell lung carcinoma LXFL 529 was grown by serial passage in nude mice. The human origin of the tumour was confirmed by isoenzymatic and immunohistochemical methods.
(§4) The tumour was implanted subcutaneously into both flanks of 6 to 8 week old nu/nu nude mice. The treatment was started, depending on the doubling time, as soon as the tumours had reached a diameter of 5-7 mm. The mice were assigned to the treatment group and the control group (5 mice per group with 8-10 assessable tumours) by randomization. The individual tumours of the control group all grew progessively.
(§5) The size of the tumours was measured in two dimensions by means of a slide gauge. The tumour volume, which correlated well with the cell count, was then used for all evaluations. The volume was calculated according to the formula “length×breadth×breadth/2” ([a×b^2]/2, a and b represent two diameters at right angles).
(§6) The values of the relative tumour volume (RTV) were calculated for each individual tumour by dividing the tumour size on day X with the tumour size on day 0 (at the time of randomization). The mean values of the RTV were then used for the further evaluation.
(§7) The inhibition of the increase of the tumour volume (tumour volume of the test group/control group, T/C, in per cent) was the final measured value.
(§8) The administration of the compounds was carried out intraperitoneally (i.p.) on day 1, 2 and 3 after randomization.

[3] = test system: large-cell lung carcinoma LXFL 529; assay: as above; conditions: for Survival time: individual mice
Experimental: as §3, §4, §5, §6, §7, §8

[4] = human large intestine cell line HT 29, MTT, read-out: IC50 HT 29
[5] = SW480, human large intestine cell line SW 480, MTT, read-out: IC50 SW 480
[6] = B16-F10, mouse melanoma cell line B16F10, MTT, read-out: IC50 B16F10
[7] = 6.25 mg/kg/day i.p. on day 1, 2 and 3
[8] = 12.5 mg/kg/day (MTD) i.p. on day 1, 2 and 3

Row | SMILES | IC50 (HT 29; [4]) | IC50 (SW 480; [5]) | IC50 (B16F10; [6]) | further results
1 | CCC1(OC(=O)[C@H](C)NC(=O)[C@H](CCCCNC(=S)Nc2ccc(OC3O[C@@H](C)[C@@H](O)[C@@H](OC)[C@@H]3O)cc2)NC(=S)Nc2ccc(OC3O[C@@H](C)[C@@H](O)[C@@H](OC)[C@@H]3O)cc2)C(=O)OCc2c1cc1n(c2=O)Cc2cc3cc4c(cc3nc2-1)OCO4 (stereo partly drawn) [Example 2.1, 20(R,S)-10,11-Methylenedioxy-20-O-{N^α,N^ε-bis-[O-(3-O-methyl-β-L-fucopyranosyl)-4-hydroxy-phenylamino-thiocarbonyl]-lysyl-alanyl}-camptothecin] | 5 nM | 7 nM | 15 nM | 
2 | CCc1c2c(nc3ccccc13)-c1cc3c(c(=O)n1C2)COC(=O)[C@]3(O)CC [7-ethyl-camptothecin] |  |  |  | IC50, inhibition of the CSF-induced proliferation of mouse bone marrow stem cells [1]: 0.002 ng/mL
3 | CC[C@@]1(OC(=O)[C@H](CC(C)C)NC(=O)[C@H](CCCCN)NC(=S)Nc2ccc(O[C@H]3O[C@@H](C)[C@@H](O)[C@@H](OC)[C@@H]3O)cc2)C(=O)OCc2c1cc1n(c2=O)Cc2cc3cc4c(cc3nc2-1)OCO4 [Example 2.4, 20(S)-10,11-Methylenedioxy-20-O-{N^α-[O-(3-O-methyl-β-L-fucopyranosyl)-4-hydroxy-phenylamino-thiocarbonyl]-lysyl-leucyl}-camptothecin, hydrochloride] | 3 nM | 5 nM | 10 nM | 
4 | CC[C@@]1(OC(=O)[C@H](C)NC(=O)[C@H](CCCCNC(=S)Nc2ccc(OC3O[C@@H](C)[C@@H](O)[C@@H](OC)[C@@H]3O)cc2)NC(=S)Nc2ccc(OC3O[C@@H](C)[C@@H](O)[C@@H](OC)[C@@H]3O)cc2)C(=O)OCc2c1cc1n(c2=O)Cc2c-1nc1ccccc1c2COC(=O)[C@H](C)NC(=O)[C@H](CCCCNC(=S)Nc1ccc(OC2O[C@@H](C)[C@@H](O)[C@@H](OC)[C@@H]2O)cc1)NC(=S)Nc1ccc(OC2O[C@@H](C)[C@@H](O)[C@@H](OC)[C@@H]2O)cc1 (stereo partly drawn) [Example 4.1, 20(S)-7-{N^α,N^ε-bis-[O-(3-O-Methyl-β-L-fucopyranosyl)-4-hydroxy-phenylamino-thiocarbonylmino-thiocarbonyl]-lysyl-alanyloxymethyl}-20-O-{N^α,N^ε-bis-[O-(3-O-methyl-β-L-fucopyranosyl)-4-hydroxy-phenylamino-thiocarbonyl]-lysyl-alanyl}-camptothecin] |  |  |  | IC50 (HT 29; Homo sapiens, HT-29, read-out: IC50 HT 29): 40 nM; IC50 (SW 480; Homo sapiens, SW480, read-out: IC50 SW 480): 40 nM; IC50 (B16F10; Mus musculus, B16-F10, read-out: IC50 B16F10): 300 nM
5 | CCc1c2c(nc3ccccc13)-c1cc3c(c(=O)n1C2)COC(=O)C3(CC)OC(=O)[C@@H](NC(=O)[C@H](CCCCN)NC(=S)Nc1ccc(OC2OC(C)C(O)C(OC)C2O)cc1)C(C)C (stereo partly drawn) [Example 1.5, 7-Ethyl-20-O-{N^α-[O-(3-O-methyl-β-L-fucopyranosyl)-4-hydroxyl-phenyl-amino-thiocarbonyl]-lysyl-valyl)-camptothecin, hydrochloride] | 60 nM | 100 nM | 300 nM | 
6 | CC[C@@]1(OC(=O)[C@H](C)NC(=O)[C@H](CCCCNC(=S)Nc2ccc(OC3O[C@@H](C)[C@@H](O)[C@@H](OC)[C@@H]3O)cc2)NC(=S)Nc2ccc(OC3O[C@@H](C)[C@@H](O)[C@@H](OC)[C@@H]3O)cc2)C(=O)OCc2c1cc1n(c2=O)Cc2cc3c(N)cccc3nc2-1 (stereo partly drawn) [Example 3.1, 20(S)-9-Amino-20-O-{N^α,N^ε-bis-[O-(3-O-methyl-β-L-fucopyranosyl)4-hydroxy-phenylamino-thiocarbonyl]-lysyl-alanyl}-camptothecin] | 8 nM | 10 nM | 150 nM | 
7 | CC[C@@]1(OC(=O)[C@H](CC(C)C)NC(=O)[C@H](CCCCN)NC(=S)Nc2ccc(O[C@H]3O[C@@H](C)[C@@H](O)[C@@H](OC)[C@@H]3O)cc2)C(=O)OCc2c1cc1n(c2=O)Cc2c-1nc1cc3c(cc1c2CN1CCN(C)CC1)OCCO3 [Example 5.1, 20(S)-7-[4-(Methylpiperazino)methy]-10,11-(ethylenedioxy)-20-O-{N^α-[O-(3-O-methyl-β-L-fucopyranosyl)4-hydroxy-phenylamino-thiocarbonyl-lysyl-leucyl}-camptothecin, hydrochloride] | 40 nM | 70 nM | 200 nM | 
8 | CC[C@@]1(O)C(=O)OCc2c1cc1n(c2=O)Cc2cc3c(N)cccc3nc2-1 [9-amino-camptothecin] |  |  |  | IC50, inhibition of the CSF-induced proliferation of mouse bone marrow stem cells [1]: 1 ng/mL
9 | CCc1c2c(nc3ccc(O)cc13)-c1cc3c(c(=O)n1C2)COC(=O)C3(CC)OC(=O)[C@@H](NC(=O)[C@H](CCCCN)NC(=S)Nc1ccc(OC2OC(C)C(O)C(OC)C2O)cc1)C(C)C (stereo partly drawn) [Example 6.1, 7-Ethyl-10-hydroxy-20-O-{N^α-[O-methyl-β-L-fucopyranosyl)-4-hydroxy-phenylamino-thiocarbonyl]-lysyl-valyl}-camptothecin, hydrochloride] | 200 nM | 150 nM | 3000 nM | 
10 | CCC1(OC(=O)C(C)NC(=O)[C@H](CCCCN)NC(=S)Nc2ccc(OC3OC(C)C(O)C(OCC(=O)O)C3O)cc2)C(=O)OCc2c1cc1n(c2=O)Cc2cc3cc4c(cc3nc2-1)OCO4 (stereo partly drawn) [Example 2.3, 20(S)-10,11-Methylenedioxy-20-O-{N^α-[O-(3-O-carboxymethyl-β-L-fucopyranosyl)-4-hydroxy-phenylamino-thiocarbonyl]-lysyl-alanyl}-camptothecin, hydrochloride] | 3 nM | 6 nM | 9 nM | 
11 | CCc1c2c(nc3ccccc13)-c1cc3c(c(=O)n1C2)COC(=O)[C@@]3(CC)OC(=O)[C@H](C)NC(=O)[C@H](CCCCNC(=S)Nc1ccc(OC2O[C@@H](C)[C@@H](O)[C@@H](OC)[C@@H]2O)cc1)NC(=S)Nc1ccc(OC2O[C@@H](C)[C@@H](O)[C@@H](OC)[C@@H]2O)cc1 (stereo partly drawn) [Example 1.1, 20(S)-7-Ethyl-20-O-{N^α, N^ε-bis-[O-(3-O-methyl-β-L-fucopyranosyl)-4-hydroxy-phenylamino-thiocarbony]-lysyl-alanyl}-camptothecin] | 10 nM | 15 nM | 30 nM | MTD at 3 days [2]: 12.5 mg/kg/day; Relative body weight on day 7 [3, 7]: 98 % of day 0; Relative tumour volume on day 14 [3, 7]: 32 % of day 0; Survival time [3, 7]: >21 days (4×) and 13 days; Relative body weight on day 7 [3, 8]: 95 % of day 0; Relative tumour volume on day 14 [3, 8]: 0.1 % of day 0; Survival time [3, 8]: >21 days
